# Experiments:
# Set-up in all cases: scale not given here
# ABUTH Velvetleaf [1] = test: Postemergence herbicidal evaluation, ABUTH; format: in vivo, Abutilon theophrasti, Medic.; conditions: postemergence spray, rated about two-three weeks after treatment
# In short: (§1)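 Ratings from greenhouse plants scored about two to three weeks after a foliar spray; data from multiple tests averaged. Seedlings about two weeks old received roughly 0.006–0.400 kg/ha active compound in 80/20 acetone/water with 1.0% methylated seed oil.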
# AMBEL Ragweed, Common [2] = test: Postemergence herbicidal evaluation, AMBEL; format: in vivo, Ambrosia artemisifolia, L.; conditions: postemergence spray, rated about two-three weeks after treatment
# In short: as §1
# CASOB Sicklepod [3] = test: Postemergence herbicidal evaluation, CASOB; format: in vivo, Cassia obtusifolia, L.; conditions: postemergence spray, rated about two-three weeks after treatment
# In short: as §1
# [4] = tested on: CHEAL Lambsquarters, Common; test: Postemergence herbicidal evaluation, CHEAL; format: in vivo, Chenopodium album, L.; conditions: postemergence spray, rated about two-three weeks after treatment
# In short: as §1
# ECHOG Barnyardgrass [5] = test: Postemergence herbicidal evaluation, ECHOG; format: in vivo, Echinochloa crus-galli, (L.) Beau; conditions: postemergence spray, rated about two-three weeks after treatment
# In short: as §1
# GALAP Galium [6] = test: Postemergence herbicidal evaluation, GALAP; format: in vivo, Galium aparine; conditions: postemergence spray, rated about two-three weeks after treatment
# In short: as §1
# [7] = tested on: IPOHE Morningglory, Ivyleaf; test: Postemergence herbicidal evaluation, IPOHE; format: in vivo, Ipomoea hederacea, (L.) Jacq.; conditions: postemergence spray, rated about two-three weeks after treatment
# In short: as §1
# SETVI Foxtail, Green [8] = test: Postemergence herbicidal evaluation, SETVI; format: in vivo, Setaria viridis, (L.) Beau; conditions: postemergence spray, rated about two-three weeks after treatment
# In short: as §1
# GLXMAW Soybean, Williams [9] = test: Postemergence herbicidal evaluation, GLXMAW; format: in vivo, Glycine max, (L.) Merr. cv Williams; conditions: postemergence spray, rated about two-three weeks after treatment
# In short: as §1
# [10] = tested on: TRZAWR Wheat, Winter, cv Riband; test: Postemergence herbicidal evaluation, TRZAWR; format: in vivo, Triticum aestivum; conditions: postemergence spray, rated about two-three weeks after treatment
# In short: as §1
# ORYSAT Rice, Tebonnet [11] = test: Postemergence herbicidal evaluation, ORYSAT; format: in vivo, Oryza sativa, (L.); conditions: postemergence spray, rated about two-three weeks after treatment
# In short: as §1
# ZEAMX Corn, Field [12] = test: Postemergence herbicidal evaluation, ZEAMX; format: in vivo, Zea mays, L. (Sammel-Bezeichnung); conditions: postemergence spray, rated about two-three weeks after treatment
# In short: as §1
# ABUTH Velvetleaf [13] = test: Preemergence herbicidal evaluation, ABUTH; format: in vivo, Abutilon theophrasti, Medic.; conditions: preemergence
# In short: (§2)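 Preemergence soil spray: aqueous acetone, ~0.013–0.800 kg/ha, applied right after sowing (seed/potting-soil mix over ~1 in soil). Greenhouse, routine watering. Scored 4–5 wk post-treatment on a rating scale.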
# AMBEL Ragweed, Common [14] = test: Preemergence herbicidal evaluation, AMBEL; format: in vivo, Ambrosia artemisifolia, L.; conditions: preemergence
# In short: as §2
# CASOB Sicklepod [15] = test: Preemergence herbicidal evaluation, CASOB; format: in vivo, Cassia obtusifolia, L.; conditions: preemergence
# In short: as §2
# [16] = tested on: CHEAL Lambsquarters, Common; test: Preemergence herbicidal evaluation, CHEAL; format: in vivo, Chenopodium album, L.; conditions: preemergence
# In short: as §2
# ECHOG Barnyardgrass [17] = test: Preemergence herbicidal evaluation, ECHOG; format: in vivo, Echinochloa crus-galli, (L.) Beau; conditions: preemergence
# In short: as §2
# GALAP Galium [18] = test: Preemergence herbicidal evaluation, GALAP; format: in vivo, Galium aparine; conditions: preemergence
# In short: as §2
# [19] = tested on: IPOHE Morningglory, Ivyleaf; test: Preemergence herbicidal evaluation, IPOHE; format: in vivo, Ipomoea hederacea, (L.) Jacq.; conditions: preemergence
# In short: as §2
# SETVI Foxtail, Green [20] = test: Preemergence herbicidal evaluation, SETVI; format: in vivo, Setaria viridis, (L.) Beau; conditions: preemergence
# In short: as §2
# GLXMAW Soybean, Williams [21] = test: Preemergence herbicidal evaluation, GLXMAW; format: in vivo, Glycine max, (L.) Merr. cv Williams; conditions: preemergence
# In short: as §2
# [22] = tested on: TRZAWR Wheat, Winter, cv Riband; test: Preemergence herbicidal evaluation, TRZAWR; format: in vivo, Triticum aestivum; conditions: preemergence
# In short: as §2
# ORYSAT Rice, Tebonnet [23] = test: Preemergence herbicidal evaluation, ORYSAT; format: in vivo, Oryza sativa, (L.); conditions: preemergence
# In short: as §2
# ZEAMX Corn, Field [24] = test: Preemergence herbicidal evaluation, ZEAMX; format: in vivo, Zea mays, L. (Sammel-Bezeichnung); conditions: preemergence
# In short: as §2
structure (smiles),measurement,setting,value
COc1ccc(Cl)cc1-n1nnc2cc(F)c(-n3c(=O)cc(C(F)(F)F)n(C)c3=O)cc21 [Example 30],Postemergence herbicidal rating ABUTH,ABUTH Velvetleaf [1]; 0.008 kg/ha,9.0
same,Postemergence herbicidal rating ABUTH,ABUTH Velvetleaf [1]; 0.016 kg/ha,9.0
same,Postemergence herbicidal rating ABUTH,ABUTH Velvetleaf [1]; 0.032 kg/ha,9.0
same,Postemergence herbicidal rating ABUTH,ABUTH Velvetleaf [1]; 0.062 kg/ha,9.0
same,Postemergence herbicidal rating AMBEL,"AMBEL Ragweed, Common [2]; 0.008 kg/ha",9.0
same,Postemergence herbicidal rating AMBEL,"AMBEL Ragweed, Common [2]; 0.016 kg/ha",9.0
same,Postemergence herbicidal rating AMBEL,"AMBEL Ragweed, Common [2]; 0.032 kg/ha",9.0
same,Postemergence herbicidal rating AMBEL,"AMBEL Ragweed, Common [2]; 0.062 kg/ha",9.0
same,Postemergence herbicidal rating CASOB,CASOB Sicklepod [3]; 0.008 kg/ha,3.0
same,Postemergence herbicidal rating CASOB,CASOB Sicklepod [3]; 0.016 kg/ha,4.0
same,Postemergence herbicidal rating CASOB,CASOB Sicklepod [3]; 0.032 kg/ha,7.0
same,Postemergence herbicidal rating CASOB,CASOB Sicklepod [3]; 0.062 kg/ha,8.0
same,Postemergence herbicidal rating CHEAL,[4]; 0.008 kg/ha,9.0
same,Postemergence herbicidal rating CHEAL,[4]; 0.016 kg/ha,9.0
same,Postemergence herbicidal rating CHEAL,[4]; 0.032 kg/ha,9.0
same,Postemergence herbicidal rating CHEAL,[4]; 0.062 kg/ha,9.0
same,Postemergence herbicidal rating ECHCG,ECHOG Barnyardgrass [5]; 0.008 kg/ha,2.0
same,Postemergence herbicidal rating ECHCG,ECHOG Barnyardgrass [5]; 0.016 kg/ha,4.0
same,Postemergence herbicidal rating ECHCG,ECHOG Barnyardgrass [5]; 0.032 kg/ha,4.0
same,Postemergence herbicidal rating ECHCG,ECHOG Barnyardgrass [5]; 0.062 kg/ha,6.0
same,Postemergence herbicidal rating GALAP,GALAP Galium [6]; 0.008 kg/ha,1.0
same,Postemergence herbicidal rating GALAP,GALAP Galium [6]; 0.016 kg/ha,3.0
same,Postemergence herbicidal rating GALAP,GALAP Galium [6]; 0.032 kg/ha,4.0
same,Postemergence herbicidal rating GALAP,GALAP Galium [6]; 0.062 kg/ha,4.0
same,Postemergence herbicidal rating IPOHE,[7]; 0.008 kg/ha,9.0
same,Postemergence herbicidal rating IPOHE,[7]; 0.016 kg/ha,9.0
same,Postemergence herbicidal rating IPOHE,[7]; 0.032 kg/ha,9.0
same,Postemergence herbicidal rating IPOHE,[7]; 0.062 kg/ha,9.0
same,Postemergence herbicidal rating SETVI,"SETVI Foxtail, Green [8]; 0.008 kg/ha",7.0
same,Postemergence herbicidal rating SETVI,"SETVI Foxtail, Green [8]; 0.016 kg/ha",6.0
same,Postemergence herbicidal rating SETVI,"SETVI Foxtail, Green [8]; 0.032 kg/ha",9.0
same,Postemergence herbicidal rating SETVI,"SETVI Foxtail, Green [8]; 0.062 kg/ha",9.0
same,Postemergence herbicidal rating GLXMAW,"GLXMAW Soybean, Williams [9]; 0.008 kg/ha",6.5
same,Postemergence herbicidal rating GLXMAW,"GLXMAW Soybean, Williams [9]; 0.016 kg/ha",6.5
same,Postemergence herbicidal rating GLXMAW,"GLXMAW Soybean, Williams [9]; 0.032 kg/ha",8.0
same,Postemergence herbicidal rating GLXMAW,"GLXMAW Soybean, Williams [9]; 0.062 kg/ha",8.0
same,Postemergence herbicidal rating TRZAWR,[10]; 0.008 kg/ha,3.5
same,Postemergence herbicidal rating TRZAWR,[10]; 0.016 kg/ha,3.5
same,Postemergence herbicidal rating TRZAWR,[10]; 0.032 kg/ha,4.0
same,Postemergence herbicidal rating TRZAWR,[10]; 0.062 kg/ha,4.5
same,Postemergence herbicidal rating ORYSAT,"ORYSAT Rice, Tebonnet [11]; 0.008 kg/ha",3.5
same,Postemergence herbicidal rating ORYSAT,"ORYSAT Rice, Tebonnet [11]; 0.016 kg/ha",3.5
same,Postemergence herbicidal rating ORYSAT,"ORYSAT Rice, Tebonnet [11]; 0.032 kg/ha",4.0
same,Postemergence herbicidal rating ORYSAT,"ORYSAT Rice, Tebonnet [11]; 0.062 kg/ha",4.5
same,Postemergence herbicidal rating ZEAMX,"ZEAMX Corn, Field [12]; 0.008 kg/ha",4.5
same,Postemergence herbicidal rating ZEAMX,"ZEAMX Corn, Field [12]; 0.016 kg/ha",4.5
same,Postemergence herbicidal rating ZEAMX,"ZEAMX Corn, Field [12]; 0.032 kg/ha",5.0
same,Postemergence herbicidal rating ZEAMX,"ZEAMX Corn, Field [12]; 0.062 kg/ha",5.0
same,ABUTH herbicidal rating,ABUTH Velvetleaf [13]; rate 0.016 kg/ha,0.0
same,ABUTH herbicidal rating,ABUTH Velvetleaf [13]; rate 0.125 kg/ha,6.0
same,AMBEL herbicidal rating,"AMBEL Ragweed, Common [14]; rate 0.016 kg/ha",0.0
same,AMBEL herbicidal rating,"AMBEL Ragweed, Common [14]; rate 0.032 kg/ha",0.0
same,AMBEL herbicidal rating,"AMBEL Ragweed, Common [14]; rate 0.062 kg/ha",3.0
same,AMBEL herbicidal rating,"AMBEL Ragweed, Common [14]; rate 0.125 kg/ha",6.0
same,CASOB herbicidal rating,CASOB Sicklepod [15]; rate 0.016 kg/ha,0.0
same,CASOB herbicidal rating,CASOB Sicklepod [15]; rate 0.032 kg/ha,1.0
same,CASOB herbicidal rating,CASOB Sicklepod [15]; rate 0.062 kg/ha,0.0
same,CASOB herbicidal rating,CASOB Sicklepod [15]; rate 0.125 kg/ha,2.0
same,CHEAL herbicidal rating,[16]; rate 0.016 kg/ha,9.0
same,CHEAL herbicidal rating,[16]; rate 0.032 kg/ha,9.0
same,CHEAL herbicidal rating,[16]; rate 0.062 kg/ha,9.0
same,CHEAL herbicidal rating,[16]; rate 0.125 kg/ha,9.0
same,ECHCG herbicidal rating,ECHOG Barnyardgrass [17]; rate 0.016 kg/ha,1.0
same,ECHCG herbicidal rating,ECHOG Barnyardgrass [17]; rate 0.032 kg/ha,5.0
same,ECHCG herbicidal rating,ECHOG Barnyardgrass [17]; rate 0.062 kg/ha,7.0
same,ECHCG herbicidal rating,ECHOG Barnyardgrass [17]; rate 0.125 kg/ha,7.0
same,GALAP herbicidal rating,GALAP Galium [18]; rate 0.016 kg/ha,2.0
same,GALAP herbicidal rating,GALAP Galium [18]; rate 0.032 kg/ha,2.0
same,GALAP herbicidal rating,GALAP Galium [18]; rate 0.062 kg/ha,3.0
same,GALAP herbicidal rating,GALAP Galium [18]; rate 0.125 kg/ha,4.0
same,IPOHE herbicidal rating,[19]; rate 0.016 kg/ha,0.0
same,IPOHE herbicidal rating,[19]; rate 0.032 kg/ha,0.0
same,IPOHE herbicidal rating,[19]; rate 0.062 kg/ha,4.0
same,IPOHE herbicidal rating,[19]; rate 0.125 kg/ha,3.0
same,SETVI herbicidal rating,"SETVI Foxtail, Green [20]; rate 0.016 kg/ha",4.0
same,SETVI herbicidal rating,"SETVI Foxtail, Green [20]; rate 0.032 kg/ha",7.0
same,SETVI herbicidal rating,"SETVI Foxtail, Green [20]; rate 0.062 kg/ha",9.0
same,SETVI herbicidal rating,"SETVI Foxtail, Green [20]; rate 0.125 kg/ha",9.0
same,GLXMAW herbicidal rating,"GLXMAW Soybean, Williams [21]; rate 0.016 kg/ha",1.0
same,GLXMAW herbicidal rating,"GLXMAW Soybean, Williams [21]; rate 0.032 kg/ha",1.0
same,GLXMAW herbicidal rating,"GLXMAW Soybean, Williams [21]; rate 0.062 kg/ha",1.0
same,GLXMAW herbicidal rating,"GLXMAW Soybean, Williams [21]; rate 0.125 kg/ha",2.0
same,TRZAWR herbicidal rating,[22]; rate 0.016 kg/ha,0.0
same,TRZAWR herbicidal rating,[22]; rate 0.032 kg/ha,1.0
same,TRZAWR herbicidal rating,[22]; rate 0.062 kg/ha,2.0
same,TRZAWR herbicidal rating,[22]; rate 0.125 kg/ha,2.0
same,ORYSAT herbicidal rating,"ORYSAT Rice, Tebonnet [23]; rate 0.016 kg/ha",0.0
same,ORYSAT herbicidal rating,"ORYSAT Rice, Tebonnet [23]; rate 0.032 kg/ha",1.0
same,ORYSAT herbicidal rating,"ORYSAT Rice, Tebonnet [23]; rate 0.062 kg/ha",2.0
same,ORYSAT herbicidal rating,"ORYSAT Rice, Tebonnet [23]; rate 0.125 kg/ha",4.0
same,ZEAMX herbicidal rating,"ZEAMX Corn, Field [24]; rate 0.016 kg/ha",1.0
same,ZEAMX herbicidal rating,"ZEAMX Corn, Field [24]; rate 0.032 kg/ha",3.0
same,ZEAMX herbicidal rating,"ZEAMX Corn, Field [24]; rate 0.062 kg/ha",5.0
same,ZEAMX herbicidal rating,"ZEAMX Corn, Field [24]; rate 0.125 kg/ha",7.0

# — patent publication US20020111274A1, “1-alkyl-3-[1-(substituted phenyl) benzotriazol-6-yl] uracils” (BASF Aktiengesellschaft, priority 2000, published 2002)
